Ratio Ki and Ki data for 16 compounds are collected here from ChEMBL document CHEMBL2331479, “Superacid synthesis of halogen containing N-substituted-4-aminobenzene sulfonamides: new selective tumor-associated carbonic anhydrase inhibitors” (Bioorg Med Chem, 2013).

By Ki is commonly meant the dissociation constant of the complex between target and ligand, obtained from inhibition or displacement.

Assay [1] is filed under the species Homo sapiens. In words: Selectivity ratio of Ki for human carbonic anhydrase 1 to Ki for human carbonic anhydrase 9.
The next assay addresses Carbonic anhydrase 1 (Homo sapiens, UniProt P00915). Put plainly: Inhibition of human recombinant carbonic anhydrase 1 preincubated for 15 mins by CO2 hydration stopped-flow assay.
A further assay addresses Carbonic anhydrase 12 (Homo sapiens, UniProt O43570). In words: Inhibition of human catalytic domain of carbonic anhydrase 12 preincubated for 15 mins by CO2 hydration stopped-flow assay.
The target in another assay is Carbonic anhydrase 2 (Homo sapiens, UniProt P00918). Put plainly: Inhibition of human recombinant carbonic anhydrase 2 preincubated for 15 mins by CO2 hydration stopped-flow assay.
The species entered for assay [2] is Homo sapiens. Put plainly: Selectivity ratio of Ki for human carbonic anhydrase 2 to Ki for human carbonic anhydrase 9.
The target of another assay is Carbonic anhydrase 9 (Homo sapiens, UniProt Q16790). Put plainly: Inhibition of human catalytic domain of carbonic anhydrase 9 preincubated for 15 mins by CO2 hydration stopped-flow assay.

Carbonic anhydrase 12, sequence (O43570 whole entry, the tested form may be a part): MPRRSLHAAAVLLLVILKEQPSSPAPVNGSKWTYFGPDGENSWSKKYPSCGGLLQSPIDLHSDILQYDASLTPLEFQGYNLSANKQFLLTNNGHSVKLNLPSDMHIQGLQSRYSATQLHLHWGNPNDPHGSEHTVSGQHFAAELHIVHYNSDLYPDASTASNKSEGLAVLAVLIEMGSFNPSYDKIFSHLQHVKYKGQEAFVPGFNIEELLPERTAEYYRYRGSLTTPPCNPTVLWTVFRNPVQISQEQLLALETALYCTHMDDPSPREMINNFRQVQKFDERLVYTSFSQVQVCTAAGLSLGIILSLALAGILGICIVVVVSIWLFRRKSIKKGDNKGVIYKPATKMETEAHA
Carbonic anhydrase 1, sequence (P00915 whole entry, the tested form may be a part): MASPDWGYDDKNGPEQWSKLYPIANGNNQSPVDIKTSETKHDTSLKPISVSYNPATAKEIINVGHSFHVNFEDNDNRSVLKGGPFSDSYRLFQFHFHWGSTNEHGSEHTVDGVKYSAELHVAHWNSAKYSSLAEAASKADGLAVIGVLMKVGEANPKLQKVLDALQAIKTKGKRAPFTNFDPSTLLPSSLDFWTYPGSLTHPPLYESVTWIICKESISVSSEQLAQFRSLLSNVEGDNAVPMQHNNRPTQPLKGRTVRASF

Take `C=C(Cl)CN(CC(=C)Cl)S(=O)(=O)c1ccc(N)cc1`: the values for the Ratio Ki in the assay filed under Homo sapiens [1] and in the assay filed under Homo sapiens [2] were 92.8 and 68.2, respectively. For the same compound, the Ki on Carbonic anhydrase 1 turned out to be 6.8 µM; at Carbonic anhydrase 12, 79.8 nM; on Carbonic anhydrase 2, 5000 nM; at Carbonic anhydrase 9 it was 73.2 nM.

`Nc1ccc(S(=O)(=O)NCCC(F)F)cc1`: the Ratio Ki in the assay filed under Homo sapiens [1] and in the assay listed under Homo sapiens [2] was 2 throughout. Further, the Ki on Carbonic anhydrase 1 came to 4.22 µM; at Carbonic anhydrase 12, 1140 nM; on Carbonic anhydrase 2 it was 4230 nM; on Carbonic anhydrase 9 it was 2120 nM.

With `NS(=O)(=O)c1ccc2c(c1)CCCN2`, the Ratio Ki in the assay listed under Homo sapiens [1] was determined as 3.8; in the assay listed under Homo sapiens [2], 1.6. Also, the Ki on Carbonic anhydrase 1 is 0.192 µM; at Carbonic anhydrase 12, 80.7 nM; at Carbonic anhydrase 2, 78.9 nM; on Carbonic anhydrase 9, 50.5 nM.

`CC(F)CNc1ccc(S(N)(=O)=O)cc1` (configuration not stated): the Ratio Ki is 4 in the assay filed under Homo sapiens [1] and 1.3 in the assay listed under Homo sapiens [2]. Besides, the Ki is 0.175 µM at Carbonic anhydrase 1, 73.9 nM on Carbonic anhydrase 12, 57.6 nM on Carbonic anhydrase 2 and 43.5 nM on Carbonic anhydrase 9.

Regarding `CC(F)(Cl)CNS(=O)(=O)c1ccc(N)cc1` (configuration not stated), the Ratio Ki in the assay listed under Homo sapiens [1] is 2.1; in the assay listed under Homo sapiens [2], 0.6. For the same compound, the inhibitory constant (Ki) was found to be 5.18 µM on Carbonic anhydrase 1, 1520 nM on Carbonic anhydrase 12, 1400 nM on Carbonic anhydrase 2 and 2470 nM on Carbonic anhydrase 9.

Take `NS(=O)(=O)c1ccc(Nc2nc(Cl)nc(NCCO)n2)cc1`: the Ratio Ki turned out to be 1460 in the assay listed under Homo sapiens [1] and 23.1 in the assay listed under Homo sapiens [2].

As to `Cc1ccc(S(=O)(=O)Nc2ccccc2)cc1`, the inhibition constant (Ki) at Carbonic anhydrase 1 amounted to 0.419 µM; on Carbonic anhydrase 2 it was 395 nM.

Take `CC(F)(F)CNS(=O)(=O)c1ccc(N)cc1`: the figures for the Ratio Ki in the assay listed under Homo sapiens [1] and in the assay listed under Homo sapiens [2] were 3.2 and 1.8, respectively. Also, the inhibitory constant (Ki) at Carbonic anhydrase 1 was found to be 0.151 µM; at Carbonic anhydrase 12 it was 79.4 nM; at Carbonic anhydrase 2, 85.3 nM; at Carbonic anhydrase 9 it was 47 nM.

Regarding `CC1CN(C)S(=O)(=O)c2ccc(N)cc21` (configuration not stated), the Ratio Ki in the assay filed under Homo sapiens [1] was determined as 4.7; in the assay filed under Homo sapiens [2] it was 3.2. In addition, the inhibitory constant (Ki) on Carbonic anhydrase 1 came out at 0.637 µM; on Carbonic anhydrase 12 it was 298 nM; on Carbonic anhydrase 2, 431 nM; at Carbonic anhydrase 9, 136 nM.

On to `C=CCNc1ccc(S(N)(=O)=O)cc1`, for which the Ratio Ki came out at 1.5 in the assay filed under Homo sapiens [1] and 1.7 in the assay filed under Homo sapiens [2]. Also, the Ki at Carbonic anhydrase 1 was determined as 2.08 µM; on Carbonic anhydrase 12, 966 nM; on Carbonic anhydrase 2 it was 2340 nM; at Carbonic anhydrase 9, 1400 nM.

Take `C=C(C)CNS(=O)(=O)c1ccc(N)cc1`: the Ratio Ki in the assay filed under Homo sapiens [1] turned out to be 2.1; in the assay filed under Homo sapiens [2], 1.4. The Ki at Carbonic anhydrase 1 worked out at 7.14 µM; at Carbonic anhydrase 12 it was 1280 nM; on Carbonic anhydrase 2, 4710 nM; on Carbonic anhydrase 9, 3460 nM.

As to `Nc1ccc(S(=O)(=O)NCCC(F)Cl)cc1` (configuration not stated), the Ratio Ki in the assay listed under Homo sapiens [1] worked out at 2.7; in the assay filed under Homo sapiens [2], 0.3. In addition, the Ki on Carbonic anhydrase 1 is 6.76 µM; on Carbonic anhydrase 12 it was 1950 nM; on Carbonic anhydrase 2, 799 nM; on Carbonic anhydrase 9, 2470 nM.

For `CC(=O)Nc1ccc(S(=O)(=O)NCC(C)F)cc1` (configuration not stated), the Ratio Ki in the assay listed under Homo sapiens [1] was 1.1; in the assay filed under Homo sapiens [2] it was 1. In addition, the inhibition constant Ki is 4.8 µM on Carbonic anhydrase 1, 1100 nM on Carbonic anhydrase 12, 4600 nM at Carbonic anhydrase 2 and 4400 nM at Carbonic anhydrase 9.

On to `CCCNS(=O)(=O)c1ccc(N)cc1`, for which the Ratio Ki is 2.5 in the assay filed under Homo sapiens [1] and 1.7 in the assay filed under Homo sapiens [2]. Moreover, the inhibitory constant (Ki) came out at 5.14 µM on Carbonic anhydrase 1, 1840 nM on Carbonic anhydrase 12, 3460 nM at Carbonic anhydrase 2 and 2080 nM at Carbonic anhydrase 9.

Consider `C=C(Cl)CNS(=O)(=O)c1ccc(N)cc1`, for which the Ratio Ki was determined as 62 in the assay filed under Homo sapiens [1] and 57.5 in the assay listed under Homo sapiens [2]. The Ki on Carbonic anhydrase 1 is 5.63 µM; at Carbonic anhydrase 12, 96 nM; at Carbonic anhydrase 2 it was 5180 nM; on Carbonic anhydrase 9, 90 nM.

For `CC(C)(F)CNS(=O)(=O)c1ccc(N)cc1`, the results for the Ratio Ki in the assay filed under Homo sapiens [1] and in the assay filed under Homo sapiens [2] were 2.1 and 0.9, respectively. The values for the inhibitory constant (Ki) at Carbonic anhydrase 1, on Carbonic anhydrase 12 and at Carbonic anhydrase 2 were 0.174 µM, 39.7 nM and 75 nM, respectively.
